Source: article PMC11576293, “New series of 4,6-diaryl pyrimidines: facile synthesis and antiproliferative activity as dual EGFR/VEGFR-2 inhibitors” (Frontiers in Chemistry, 2024)

Tests used:
Test in all cases: NCI-60 single-dose screen
Type in all cases: cell-based
NCI-H460 = conditions: Homo sapiens, single dose 10 µM, '-' = no inhibition, read-out: % Growth Inhibition
Procedure: (§1) The National Cancer Institute’s Developmental Therapeutic Program (www.dtp.nci.nih.gov) has tested compounds 9–29 (except compounds 21 and 22) against 60 cancer cell lines from nine types (leukemia, lung, colon, CNS, melanoma, ovarian, renal, prostate, and breast cancer) at a single dose (10 μM) ([El-Sherief et al., 2018]). […] The most sensitive cells included leukemia (SR, K-562, and MOLT-4), lung (NCI-H522, […], and EKVX), breast (MCF-7 and T-47D), colon (HCT-15 and HT-29), and ovarian (NCI/ADR-RES).
(§2) The National Cancer Institute’s Developmental Therapeutic Program (www.dtp.nci.nih.gov) evaluated compounds 9–29 (excluding 21 and 22) against 60 cancer cell lines from nine categories (leukemia, lung, colon, CNS, melanoma, ovarian, renal, prostate, and breast cancer) at a single dose (10 μM) ([El-Sherief et al., 2018]). See Supplementary Material A1 for more details.

UACC-62 = conditions: Homo sapiens, single dose 10 µM, '-' = no inhibition, read-out: % Growth Inhibition
Procedure: as §1, §2

SK-MEL-2 = conditions: Homo sapiens, single dose 10 µM, '-' = no inhibition, read-out: % Growth Inhibition
Procedure: as §1, §2

MDA-MB-435 = conditions: Homo sapiens, single dose 10 µM, '-' = no inhibition, read-out: % Growth Inhibition
Procedure: as §1, §2

NCI-H522 = conditions: Homo sapiens, single dose 10 µM, '-' = no inhibition, read-out: % Growth Inhibition
Procedure: as §1, §2

MCF7 = conditions: Homo sapiens, single dose 10 µM, '-' = no inhibition, read-out: % Growth Inhibition
Procedure: as §1, §2

MDA-MB-468 = conditions: Homo sapiens, single dose 10 µM, '-' = no inhibition, read-out: % Growth Inhibition
Procedure: as §1, §2

SK-OV-3 = conditions: Homo sapiens, single dose 10 µM, '-' = no inhibition, read-out: % Growth Inhibition
Procedure: as §1, §2

EKVX = conditions: Homo sapiens, single dose 10 µM, '-' = no inhibition, read-out: % Growth Inhibition
Procedure: as §1, §2

SF-268 = conditions: Homo sapiens, single dose 10 µM, '-' = no inhibition, read-out: % Growth Inhibition
Procedure: as §1, §2

HS 578T = conditions: Homo sapiens, single dose 10 µM, '-' = no inhibition, read-out: % Growth Inhibition
Procedure: as §1, §2

HCT-15 = conditions: Homo sapiens, single dose 10 µM, '-' = no inhibition, read-out: % Growth Inhibition
Procedure: as §1, §2

CCRF-CEM = conditions: Homo sapiens, single dose 10 µM, '-' = no inhibition, read-out: % Growth Inhibition
Procedure: as §1, §2

OVCAR-5 = conditions: Homo sapiens, single dose 10 µM, '-' = no inhibition, read-out: % Growth Inhibition
Procedure: as §1, §2

BT-549 = conditions: Homo sapiens, single dose 10 µM, '-' = no inhibition, read-out: % Growth Inhibition
Procedure: as §1, §2

HOP-62 = conditions: Homo sapiens, single dose 10 µM, '-' = no inhibition, read-out: % Growth Inhibition
Procedure: as §1, §2

SW-620 = conditions: Homo sapiens, single dose 10 µM, '-' = no inhibition, read-out: % Growth Inhibition
Procedure: as §1, §2

SNB-75 = conditions: Homo sapiens, single dose 10 µM, '-' = no inhibition, read-out: % Growth Inhibition
Procedure: as §1, §2

HOP-92 = conditions: Homo sapiens, single dose 10 µM, '-' = no inhibition, read-out: % Growth Inhibition
Procedure: as §1, §2

NCI/ADR-RES = conditions: Homo sapiens, single dose 10 µM, '-' = no inhibition, read-out: % Growth Inhibition
Procedure: as §1, §2

HCC-2998 = conditions: Homo sapiens, single dose 10 µM, '-' = no inhibition, read-out: % Growth Inhibition
Procedure: as §1, §2

HCT-116 = conditions: Homo sapiens, single dose 10 µM, '-' = no inhibition, read-out: % Growth Inhibition
Procedure: as §1, §2

UO-31 = conditions: Homo sapiens, single dose 10 µM, '-' = no inhibition, read-out: % Growth Inhibition
Procedure: as §1, §2

A549/ATCC = conditions: Homo sapiens, single dose 10 µM, '-' = no inhibition, read-out: % Growth Inhibition
Procedure: as §1, §2

CAKI-1 = conditions: Homo sapiens, single dose 10 µM, '-' = no inhibition, read-out: % Growth Inhibition
Procedure: as §1, §2

M14 = conditions: Homo sapiens, single dose 10 µM, '-' = no inhibition, read-out: % Growth Inhibition
Procedure: as §1, §2

786-0 = conditions: Homo sapiens, single dose 10 µM, '-' = no inhibition, read-out: % Growth Inhibition
Procedure: as §1, §2

MALME-3M = conditions: Homo sapiens, single dose 10 µM, '-' = no inhibition, read-out: % Growth Inhibition
Procedure: as §1, §2

SF-539 = conditions: Homo sapiens, single dose 10 µM, '-' = no inhibition, read-out: % Growth Inhibition
Procedure: as §1, §2

SK-MEL-28 = conditions: Homo sapiens, single dose 10 µM, '-' = no inhibition, read-out: % Growth Inhibition
Procedure: as §1, §2

IGROV1 = conditions: Homo sapiens, IGROV-1, single dose 10 µM, '-' = no inhibition, read-out: % Growth Inhibition
Procedure: as §1, §2

KM12 = conditions: Homo sapiens, single dose 10 µM, '-' = no inhibition, read-out: % Growth Inhibition
Procedure: as §1, §2

T-47D = conditions: Homo sapiens, T47D, single dose 10 µM, '-' = no inhibition, read-out: % Growth Inhibition
Procedure: as §1, §2

U251 = conditions: Homo sapiens, U-251, single dose 10 µM, '-' = no inhibition, read-out: % Growth Inhibition
Procedure: as §1, §2

SK-MEL-5 = conditions: Homo sapiens, single dose 10 µM, '-' = no inhibition, read-out: % Growth Inhibition
Procedure: as §1, §2

SNB-19 = conditions: Homo sapiens, single dose 10 µM, '-' = no inhibition, read-out: % Growth Inhibition
Procedure: as §1, §2

OVCAR-3 = conditions: Homo sapiens, single dose 10 µM, '-' = no inhibition, read-out: % Growth Inhibition
Procedure: as §1, §2

SF-295 = conditions: Homo sapiens, single dose 10 µM, '-' = no inhibition, read-out: % Growth Inhibition
Procedure: as §1, §2

RPMI-8226 = conditions: Homo sapiens, single dose 10 µM, '-' = no inhibition, read-out: % Growth Inhibition
Procedure: as §1, §2

TK-10 = conditions: Homo sapiens, single dose 10 µM, '-' = no inhibition, read-out: % Growth Inhibition
Procedure: as §1, §2

MOLT-4 = conditions: Homo sapiens, single dose 10 µM, '-' = no inhibition, read-out: % Growth Inhibition
Procedure: as §1, §2

A498 = conditions: Homo sapiens, single dose 10 µM, '-' = no inhibition, read-out: % Growth Inhibition
Procedure: as §1, §2

PC-3 = conditions: Homo sapiens, single dose 10 µM, '-' = no inhibition, read-out: % Growth Inhibition
Procedure: as §1, §2

SN12C = conditions: Homo sapiens, single dose 10 µM, '-' = no inhibition, read-out: % Growth Inhibition
Procedure: as §1, §2

RXF 393 = conditions: Homo sapiens, single dose 10 µM, '-' = no inhibition, read-out: % Growth Inhibition
Procedure: as §1, §2

HT29 = conditions: Homo sapiens, HT-29, single dose 10 µM, '-' = no inhibition, read-out: % Growth Inhibition
Procedure: as §1, §2

ACHN 1 = conditions: Homo sapiens, single dose 10 µM, '-' = no inhibition, read-out: % Growth Inhibition
Procedure: as §1, §2

UACC-257 = conditions: Homo sapiens, single dose 10 µM, '-' = no inhibition, read-out: % Growth Inhibition
Procedure: as §1, §2

In the case of COc1ccc(CSc2nc(-c3ccc(Cl)cc3)cc(-c3ccc(OC)cc3)n2)cc1 [Compound 15, 2-(4-Methoxybenzylthio)-4-(4-chlorophenyl)-6-(4-methoxyphenyl)pyrimidine], the inhibition at 10 µM (NCI-H460) is reported as under 0%, the inhibition at 10 µM (UACC-62) is reported as under 0% and the inhibition at 10 µM (SK-MEL-2) is reported as under 0%. The inhibition at 10 µM (MDA-MB-435) was 2.38%, the inhibition at 10 µM (NCI-H522) was under 0% and the inhibition at 10 µM (MCF7) was under 0%. The inhibition at 10 µM (MDA-MB-468) was under 0%, the inhibition at 10 µM (SK-OV-3) was under 0% and the inhibition at 10 µM (EKVX) was under 0%. For the same compound, the inhibition at 10 µM (SF-268) was under 0%, the inhibition at 10 µM (HS 578T) was 9.27% and the inhibition at 10 µM (HCT-15) was 0.53%. The inhibition at 10 µM (CCRF-CEM) was under 0%, the inhibition at 10 µM (OVCAR-5) was under 0% and the inhibition at 10 µM (BT-549) was under 0%. The inhibition at 10 µM (HOP-62) was under 0%, the inhibition at 10 µM (SW-620) was under 0% and the inhibition at 10 µM (SNB-75) was under 0%. For the same compound, the inhibition at 10 µM (HOP-92) was under 0%, the inhibition at 10 µM (NCI/ADR-RES) was under 0% and the inhibition at 10 µM (HCC-2998) was under 0%. The inhibition at 10 µM (HCT-116) was under 0%, the inhibition at 10 µM (UO-31) was under 0% and the inhibition at 10 µM (A549/ATCC) was under 0%. For the same compound, the inhibition at 10 µM (CAKI-1) was under 0%, the inhibition at 10 µM (M14) was under 0% and the inhibition at 10 µM (786-0) was under 0%. It also gave an inhibition at 10 µM (MALME-3M) of under 0%, an inhibition at 10 µM (SF-539) of under 0% and an inhibition at 10 µM (SK-MEL-28) of under 0%. It also gave an inhibition at 10 µM (IGROV1) of under 0%, an inhibition at 10 µM (KM12) of under 0% and an inhibition at 10 µM (T-47D) of under 0%. It also gave an inhibition at 10 µM (U251) of under 0%, an inhibition at 10 µM (SK-MEL-5) of under 0% and an inhibition at 10 µM (SNB-19) of under 0%. It also gave an inhibition at 10 µM (OVCAR-3) of 5.05%, an inhibition at 10 µM (SF-295) of under 0% and an inhibition at 10 µM (RPMI-8226) of under 0%. For the same compound, the inhibition at 10 µM (TK-10) was under 0%, the inhibition at 10 µM (MOLT-4) was 3.03% and the inhibition at 10 µM (A498) was under 0%. It also gave an inhibition at 10 µM (PC-3) of 17.5%, an inhibition at 10 µM (SN12C) of 11.3% and an inhibition at 10 µM (RXF 393) of under 0%. For the same compound, the inhibition at 10 µM (HT29) was 4.35%, the inhibition at 10 µM (ACHN 1) was 15.8% and the inhibition at 10 µM (UACC-257) was under 0%.
